Tested on: ATF4 luciferase reporter (human full-length ATF4 5'-UTR fused to firefly luciferase) in HEK293T cells
Test: ATF4-Luc assay (in vitro model of VWMD): HEK293T cells carrying ATF4 luciferase reporter, tunicamycin-treated
Type: cell-based
Conditions: Homo sapiens, HEK-293T, 1 μg/mL tunicamycin, 7 hours, One Glo luminescence
Summary of the method: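 Compound at 200 nM and tunicamycin at 1 μg/mL were given together for 7 h to HEK293T cells stably transduced with an ATF4 5′-UTR-driven firefly luciferase reporter. Read-out by luminescence, reported as EC50.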

SMILES: CS(=O)(=O)N[C@@H]1C[C@@H](C(=O)NC23CC(NC(=O)COc4ccc(Cl)c(F)c4)(C2)C3)Oc2ccc(Cl)cc21 [Compound 245, (2S,4R)-6-chloro-N-{3-[2-(4-chloro-3-fluorophenoxy)acetamido]bicyclo[1.1.1]pentan-1-yl}-4-[(methanesulfonyl)amino]-3,4-dihydro-2H-1-benzopyran-2-carboxamide]
- EC50: < 10 nM

SMILES: O=C(COc1ccc(Cl)c(F)c1)NC12CC(NC(=O)C3CC(O)c4cc(F)c(Cl)cc4O3)(C1)C2 (stereo not shown) [Compound 246, 7-chloro-N-{3-[2-(4-chloro-3-fluorophenoxy)acetamido]bicyclo[1.1.1]pentan-1-yl}-6-fluoro-4-hydroxy-3,4-dihydro-2H-1-benzopyran-2-carboxamide]
- EC50: < 10 nM

SMILES: O=C(COc1ccc(Cl)c(F)c1)NC12CC(NC(=O)C3CC(O)c4ccc(Cl)cc4O3)(C1)C2 (stereo not shown) [Compound 247, 7-chloro-N-{3-[2-(4-chloro-3-fluorophenoxy)acetamido]bicyclo[1.1.1]pentan-1-yl}-4-hydroxy-3,4-dihydro-2H-1-benzopyran-2-carboxamide]
- EC50: < 10 nM

SMILES: O=C(COc1ccc(Cl)c(F)c1)NC12CC(NC(=O)C3CC(=O)c4cc(F)c(F)cc4O3)(C1)C2 (stereo not shown) [Compound 248, N-{3-[2-(4-chloro-3-fluorophenoxy)acetamido]bicyclo[1.1.1]pentan-1-yl}-6,7-difluoro-4-oxo-3,4-dihydro-2H-1-benzopyran-2-carboxamide]
- EC50: < 10 nM

SMILES: O=C(COc1ccc(Cl)c(F)c1)NC12CC(NC(=O)[C@H]3C[C@@H](O)c4cc(F)c(F)cc4O3)(C1)C2 [Compound 252, (2R,4R)—N-{3-[2-(4-chloro-3-fluorophenoxy)acetamido]bicyclo[1.1.1]pentan-1-yl}-6,7-difluoro-4-hydroxy-3,4-dihydro-2H-1-benzopyran-2-carboxamide]
- EC50: < 10 nM

SMILES: O=C(COc1ccc(Cl)c(F)c1)NC12CC(NC(=O)[C@@H]3C[C@H](O)c4cc(F)c(F)cc4O3)(C1)C2 [Compound 253, (2S,4S)—N-{3-[2-(4-chloro-3-fluorophenoxy)acetamido]bicyclo[1.1.1]pentan-1-yl}-6,7-difluoro-4-hydroxy-3,4-dihydro-2H-1-benzopyran-2-carboxamide]
- EC50: < 10 nM

SMILES: Cc1ccc2c(c1)C(O)CC(C(=O)NC13CC(NC(=O)COc4ccc(Cl)c(F)c4)(C1)C3)O2 (stereo not shown) [Compound 254, N-{3-[2-(4-chloro-3-fluorophenoxy)acetamido]bicyclo[1.1.1]pentan-1-yl}-4-hydroxy-6-methyl-3,4-dihydro-2H-1-benzopyran-2-carboxamide]
- EC50: < 10 nM

SMILES: O=C(COc1ccc(Cl)c(F)c1)NC12CCC(NC(=O)[C@H]3CC(=O)c4cc(Cl)ccc4O3)(C1)C2 [Compound 255, (2R)-6-chloro-N-{4-[2-(4-chloro-3-fluorophenoxy)acetamido]bicyclo[2.1.1]hexan-1-yl}-4-oxo-3,4-dihydro-2H-1-benzopyran-2-carboxamide]
- EC50: < 10 nM

SMILES: O=C(COc1ccc(Cl)c(F)c1)NC12CCC(NC(=O)[C@H]3C[C@@H](O)c4cc(Cl)ccc4O3)(C1)C2 [Compound 256, (2R,4R)-6-chloro-N-{4-[2-(4-chloro-3-fluorophenoxy)acetamido]bicyclo[2.1.1]hexan-1-yl}-4-hydroxy-3,4-dihydro-2H-1-benzopyran-2-carboxamide]
- EC50: < 10 nM

SMILES: C[C@@]1(C(=O)NC23CC(NC(=O)COc4ccc(Cl)c(F)c4)(C2)C3)Cc2cc(Cl)ccc2O1 [Compound 257, (2S)-5-chloro-N-{3-[2-(4-chloro-3-fluorophenoxy)acetamido]bicyclo[1.1.1]pentan-1-yl}-2-methyl-2,3-dihydro-1-benzofuran-2-carboxamide]
- EC50: > 2000 nM

SMILES: C[C@]1(C(=O)NC23CC(NC(=O)COc4ccc(Cl)c(F)c4)(C2)C3)Cc2cc(Cl)ccc2O1 [Compound 258, (2R)-5-chloro-N-{3-[2-(4-chloro-3-fluorophenoxy)acetamido]bicyclo[1.1.1]pentan-1-yl}-2-methyl-2,3-dihydro-1-benzofuran-2-carboxamide]
- EC50: > 2000 nM

SMILES: C[C@]1(C(=O)NC23CC(NC(=O)COc4ccc(Cl)c(F)c4)(C2)C3)Oc2ccc(Cl)cc2C1=O [Compound 259, (2S)-5-chloro-N-{3-[2-(4-chloro-3-fluorophenoxy)acetamido]bicyclo[1.1.1]pentan-1-yl}-2-methyl-3-oxo-2,3-dihydro-1-benzofuran-2-carboxamide]
- EC50: 500 to 2000 nM

SMILES: O=C(COc1ccc(Cl)c(F)c1)NC12CCC(NC(=O)[C@H]3C[C@H](O)c4cc(Cl)ccc4O3)(C1)C2 [Compound 260, (2R,4S)-6-chloro-N-{4-[2-(4-chloro-3-fluorophenoxy)acetamido]bicyclo[2.1.1]hexan-1-yl}-4-hydroxy-3,4-dihydro-2H-1-benzopyran-2-carboxamide]
- EC50: < 10 nM

SMILES: O=C(COc1ccc(Cl)c(F)c1)NC12CC(NC(=O)C3Cc4cc(Cl)ccc4N3)(C1)C2 (stereo not shown) [Compound 261, 5-chloro-N-{3-[2-(4-chloro-3-fluorophenoxy)acetamido]bicyclo[1.1.1]pentan-1-yl}-2,3-dihydro-1H-indole-2-carboxamide]
- EC50: 50 to 250 nM

SMILES: C[C@]1(C(=O)NC23CC(NC(=O)COc4ccc(Cl)c(F)c4)(C2)C3)Oc2ccc(Cl)cc2C1O (stereo partly drawn) [Compound 262, (2S)-5-chloro-N-{3-[2-(4-chloro-3-fluorophenoxy)acetamido]bicyclo[1.1.1]pentan-1-yl}-3-hydroxy-2-methyl-2,3-dihydro-1-benzofuran-2-carboxamide]
- EC50: > 2000 nM

SMILES: C[C@@]1(C(=O)NC23CC(NC(=O)COc4ccc(Cl)c(F)c4)(C2)C3)Oc2ccc(Cl)cc2C1O (stereo partly drawn) [Compound 263, (2R)-5-chloro-N-{3-[2-(4-chloro-3-fluorophenoxy)acetamido]bicyclo[1.1.1]pentan-1-yl}-3-hydroxy-2-methyl-2,3-dihydro-1-benzofuran-2-carboxamide]
- EC50: > 2000 nM

SMILES: O=C(COc1ccc(Cl)c(F)c1)NC12CC(NC(=O)[C@H]3C[C@@H](O)c4cc(Cl)c(F)cc4O3)(C1)C2 [Compound 264, (2R,4R)-6-chloro-N-{3-[2-(4-chloro-3-fluorophenoxy)acetamido]bicyclo[1.1.1]pentan-1-yl}-7-fluoro-4-hydroxy-3,4-dihydro-2H-1-benzopyran-2-carboxamide]
- EC50: < 10 nM

SMILES: CN1c2ccc(Cl)cc2CC1C(=O)NC12CC(NC(=O)COc3ccc(Cl)c(F)c3)(C1)C2 (stereo not shown) [Compound 266, 5-chloro-N-{3-[2-(4-chloro-3-fluorophenoxy)acetamido]bicyclo[1.1.1]pentan-1-yl}-1-methyl-2,3-dihydro-1H-indole-2-carboxamide]
- EC50: 50 to 250 nM

SMILES: O=C(COc1ccc(Cl)c(F)c1)NC12CC(NC(=O)[C@H]3C[C@@H](O)c4ccccc4O3)(C1)C2 [Compound 267, (2R,4R)—N-{3-[2-(4-chloro-3-fluorophenoxy)acetamido]bicyclo[1.1.1]pentan-1-yl}-4-hydroxy-3,4-dihydro-2H-1-benzopyran-2-carboxamide]
- EC50: 10 to 50 nM

SMILES: O=C(COc1ccc(Cl)c(F)c1)NC12CC(NC(=O)[C@H]3CC(=O)c4ccccc4O3)(C1)C2 [Compound 268, (2R)—N-{3-[2-(4-chloro-3-fluorophenoxy)acetamido]bicyclo[1.1.1]pentan-1-yl}-4-oxo-3,4-dihydro-2H-1-benzopyran-2-carboxamide]
- EC50: 10 to 50 nM

SMILES: O=C(COc1ccc(Cl)c(F)c1)NC12CC(NC(=O)[C@@H]3CC(=O)c4ccccc4O3)(C1)C2 [Compound 269, (2S)—N-{3-[2-(4-chloro-3-fluorophenoxy)acetamido]bicyclo[1.1.1]pentan-1-yl}-4-oxo-3,4-dihydro-2H-1-benzopyran-2-carboxamide]
- EC50: 50 to 250 nM

SMILES: O=C(COc1ccc(Cl)c(F)c1)NC12CC(NC(=O)[C@@H]3C[C@H](O)c4ccccc4O3)(C1)C2 [Compound 270, (2S,4S)—N-{3-[2-(4-chloro-3-fluorophenoxy)acetamido]bicyclo[1.1.1]pentan-1-yl}-4-hydroxy-3,4-dihydro-2H-1-benzopyran-2-carboxamide]
- EC50: 50 to 250 nM

SMILES: O=C(COc1ccc(F)c(F)c1)NC12CC(NC(=O)[C@H]3CC(=O)c4cc(F)c(F)cc4O3)(C1)C2 [Compound 271, (2R)—N-{3-[2-(3,4-difluorophenoxy)acetamido]bicyclo[1.1.1]pentan-1-yl}-6,7-difluoro-4-oxo-3,4-dihydro-2H-1-benzopyran-2-carboxamide]
- EC50: 10 to 50 nM

SMILES: O=C(COc1ccc(F)c(F)c1)NC12CC(NC(=O)[C@H]3C[C@@H](O)c4cc(F)c(F)cc4O3)(C1)C2 [Compound 272, (2R,4R)—N-{3-[2-(3,4-difluorophenoxy)acetamido]bicyclo[1.1.1]pentan-1-yl}-6,7-difluoro-4-hydroxy-3,4-dihydro-2H-1-benzopyran-2-carboxamide]
- EC50: < 10 nM

SMILES: O=C(COc1ccc(F)c(F)c1)NC12CC(NC(=O)[C@@H]3C[C@H](O)c4cc(F)c(F)cc4O3)(C1)C2 [Compound 273, (2S,4S)—N-{3-[2-(3,4-difluorophenoxy)acetamido]bicyclo[1.1.1]pentan-1-yl}-6,7-difluoro-4-hydroxy-3,4-dihydro-2H-1-benzopyran-2-carboxamide]
- EC50: 10 to 50 nM

SMILES: CCc1ncc(C(=O)NC23CCC(NC(=O)[C@H]4C[C@@H](O)c5cc(Cl)ccc5O4)(CC2)C[C@@H]3O)o1 [Compound 274, N-[(2S)-4-{[(2R,4R)-6-chloro-4-hydroxy-3,4-dihydro-2H-1-benzopyran-2-carbonyl]amino}-2-hydroxybicyclo[2.2.2]octan-1-yl]-2-ethyl-1,3-oxazole-5-carboxamide]
- EC50: 50 to 250 nM

SMILES: O=C(COc1ccc(F)c(F)c1)NC12CC(NC(=O)[C@H]3CC(=O)c4cc(Cl)ccc4O3)(C1)C2 [Compound 275, (2R)-6-chloro-N-{3-[2-(3,4-difluorophenoxy)acetamido]bicyclo[1.1.1]pentan-1-yl}-4-oxo-3,4-dihydro-2H-1-benzopyran-2-carboxamide]
- EC50: < 10 nM

SMILES: O=C(COc1ccc(F)c(F)c1)NC12CC(NC(=O)[C@@H]3CC(=O)c4cc(Cl)ccc4O3)(C1)C2 [Compound 276, (2S)-6-chloro-N-{3-[2-(3,4-difluorophenoxy)acetamido]bicyclo[1.1.1]pentan-1-yl}-4-oxo-3,4-dihydro-2H-1-benzopyran-2-carboxamide]
- EC50: 10 to 50 nM
